Laboratory results as given in paper PMC11972359, “Flexibility-tuning of dual-display DNA-encoded chemical libraries facilitates cyclic peptide ligand discovery” (Nature Communications, 2025).

molecular target: T1, placental alkaline phosphatase (PLAP) (Homo sapiens, UniProt P05187); assay: PLAP inhibition assay (pNPP substrate); type: biochemical; conditions: off-DNA; pH 10 (activation buffer pH 9.8); read-out: IC50 (determined fit)
T1 construct: AviTag (biotinylated in vitro by BirA); 6xHis-tag; made in house; host or cells: Chinese hamster ovary (CHO) cells
Description: For the PLAP inhibition assay, 500 µM of inhibitor was used for a 16-point serial dilution in 10% DMSO/activation buffer in PCR tubes. Separately, a 12.5 nM solution of PLAP and a 4.5 mM solution of p-nitrophenylphosphate (pNPP) were prepared in activation buffer (see below). 8 µL of each inhibitor dilution was mixed with 16 µL of enzyme solution and 16 µL of pNPP solution and gently mixed. The assay was allowed to develop in the dark for 30 min (activation buffer pH10: 150 mM diethanolamine, 1 mM MgCl2, 60 mM ZnCl2 in water, pH 9.8) or 1 hour (activation buffer pH9: 150 mM Tris, 1 mM MgCl2, 60 mM ZnCl2 in water, pH 9.0). 50 µL of 2 M NaOH was then added to quench the reaction. Readout was performed to detect 405 nm vs 620 nm absorption. Data was fitted using Prism 10. Raw data from PLAP measurements can be found in Supplementary Information, section 7.2.2.
Human alpha-thrombin was obtained from Prolytix (Haematologic Technologies) - BioConnect Website and used in FP and inhibition assays. Biotinylated thrombin used for selections was obtained from Sigma Aldrich.
The recombinant human placental alkaline phosphatase (hPLAP) labelled with AviTag™ and 6xHis-tag was produced in Chinese hamster ovary (CHO) cells and was purified by Ni-NTA affinity chromatography and size-exclusion chromatography. The in-vitro biotinylation of the protein is mediated by BirA protein system. “Early-fraction” is the final material used for fluorescence polarization and inhibition experiments.
Figure S32: Quality characterization of recombinant hPLAP. A. The size exclusion chromatogram of purifying recombinant hPLAP expressed in CHO cells after Ni-NTA affinity chromatography purification and biotinylation. […] The absorbances at 450nm were measured with/without the presence of hPLAP and/or human PLAP antibody. […]
Protocol was adapted from Habeshian et al. 12. […] Fluorescence (excitation at 360 nm, emission at 465 nm) was measured every 3 min for 30 min. […] Data was measured in triplicate. […]
and gently mixed. […] Readout was performed to detect 405 nm vs 620 nm absorption. […]

T1 sequence (P05187 23-506 limits assumed): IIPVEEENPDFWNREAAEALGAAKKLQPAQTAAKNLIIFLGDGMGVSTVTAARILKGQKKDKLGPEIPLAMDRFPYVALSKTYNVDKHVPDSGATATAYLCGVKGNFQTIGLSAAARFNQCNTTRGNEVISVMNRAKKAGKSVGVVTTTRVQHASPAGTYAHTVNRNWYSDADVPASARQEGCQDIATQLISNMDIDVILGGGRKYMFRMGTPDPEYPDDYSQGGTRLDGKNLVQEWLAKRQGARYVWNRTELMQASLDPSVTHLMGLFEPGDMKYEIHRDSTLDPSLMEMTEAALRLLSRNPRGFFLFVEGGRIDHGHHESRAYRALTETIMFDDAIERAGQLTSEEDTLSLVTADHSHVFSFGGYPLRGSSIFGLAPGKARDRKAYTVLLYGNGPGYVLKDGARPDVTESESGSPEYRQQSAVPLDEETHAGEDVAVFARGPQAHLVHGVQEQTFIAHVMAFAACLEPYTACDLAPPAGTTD

IC50 [nM] | Structure (SMILES)
21000 | NC(=O)CSC[C@H](NC(=O)C[C@H](Cc1ccccc1Cl)NC(=O)[C@@H](N)Cc1ccccc1Cl)C(=O)NCCCCCC(=O)N[C@@H](CCCCNC(=S)Nc1ccc2c(c1)C(=O)OC21c2ccc(O)cc2Oc2cc(O)ccc21)C(N)=O [Compound 21]

same assay, conditions: off-DNA; pH not printed with the values, pH 9 implied by b30; mean of n=3; read-out: IC50

IC50 [nM] | Structure (SMILES)
2500 | NC(=O)CSC[C@H](NC(=O)C[C@H](Cc1ccccc1Cl)NC(=O)[C@@H](N)Cc1ccccc1Cl)C(=O)NCCCCCC(=O)N[C@@H](CCCCNC(=S)Nc1ccc2c(c1)C(=O)OC21c2ccc(O)cc2Oc2cc(O)ccc21)C(N)=O [Compound 21]
1430 | C#CCN1CCC[C@H]1C(=O)N[C@H](CC(=O)N[C@@H](CSC1CC(=O)N(CCN2C(=O)CC(SC[C@H](NC(=O)C[C@H](Cc3ccccc3Cl)NC(=O)[C@@H](N)Cc3ccccc3Cl)C(=O)NCCCCCC(=O)N[C@@H](CCCCNC(=S)Nc3ccc4c(c3)C(=O)OC43c4ccc(O)cc4Oc4cc(O)ccc43)C(N)=O)C2=O)C1=O)C(N)=O)Cc1ccccc1Cl (stereo partly shown) [Compound 22]

molecular target: streptavidin (Streptomyces avidinii, UniProt P22629); assay: biochemical; type: binding; conditions: not given
Description: (§1) LNA5 and LNA3 conjugates were hybridized by mixing 25 µL of LNA5 (2 µM) and 25 µL of LNA3 (2 µM) conjugates in water and heating to 70 °C for 5-10 min. After cooling down the solution to room temperature, 950 µL of 1x PBS was added to the LNA solution. The hybridized LNA conjugates were then tested via fluorescence polarization.
If the LNA conjugates were clicked together, they were diluted to 1 µM, 50 µL of a clicked conjugate was diluted with 950 µL 1x PBS and tested by fluorescence polarization.
(§2) Separately, a 16-point serial dilution of protein was performed in PBS in PCR tubes. 4 µL of the 50 nM conjugate was mixed with 4 µL of each protein dilution in black 384-well plates to a final volume of 8 µL. The plate was incubated for 30 min in the dark and centrifuged briefly to remove bubbles. Fluorescence anisotropy was measured at 535 nm. Data was fitted using Prism 10. Raw data from experimental FP measurements can be found in Supplementary Information, section 7.1.
7.1. Fluorescence Polarization
as §1, with “mQ” for “water”, “polarization experiment.” for “polarization.”
If the LNA conjugates were clicked together, they were diluted to 1 µM, 50 µL of a clicked conjugate could then be taken, diluted with 950 µL 1x PBS and tested via fluorescence […]
All other off-DNA fluoresceinated compounds were diluted to 50 nM in 1xPBS containing 5% […]
as §2, with “Data was obtained and fitted using” for “Data was fitted using”, “Prism 10.” for “Prism 10. Raw data from experimental FP measurements can be found in Supplementary Information, section 7.1.”

Structure (SMILES) | Kd [nM]
CC(C)C[C@H](C(=O)N1Cc2cc(C(=O)N[C@@H](CSCC(N)=O)C(=O)NCCCCCC(=O)N[C@@H](CCCCNC(=O)c3ccc4c(c3)C(=O)OC43c4ccc(O)cc4Oc4cc(O)ccc43)C(N)=O)sc2C1)n1cc(CN2CCC[C@H]2C(=O)N[C@H](CC2CCCCC2)C(=O)N[C@@H](CSCC(N)=O)C(N)=O)nn1 [Compound 7-L0] | 173
CC(C)C[C@@H]1C(=O)N2Cc3cc(sc3C2)C(=O)N[C@H](C(=O)NCCCCCC(=O)N[C@@H](CCCCNC(=O)c2ccc3c(c2)C(=O)OC32c3ccc(O)cc3Oc3cc(O)ccc32)C(N)=O)CSCCS(=O)(=O)CS(=O)(=O)CCSC[C@@H](C(N)=O)NC(=O)[C@@H](CC2CCCCC2)NC(=O)[C@@H]2CCCN2Cc2cn1nn2 [Compound 7-L1] | > 5000
CC(C)C[C@@H]1C(=O)N2Cc3cc(sc3C2)C(=O)N[C@H](C(=O)NCCCCCC(=O)N[C@@H](CCCCNC(=O)c2ccc3c(c2)C(=O)OC32c3ccc(O)cc3Oc3cc(O)ccc32)C(N)=O)CSCc2ccc(cc2)CSC[C@@H](C(N)=O)NC(=O)[C@@H](CC2CCCCC2)NC(=O)[C@@H]2CCCN2Cc2cn1nn2 [Compound 7-L2] | > 5000
CC(C)C[C@@H]1C(=O)N2Cc3cc(sc3C2)C(=O)N[C@H](C(=O)NCCCCCC(=O)N[C@@H](CCCCNC(=O)c2ccc3c(c2)C(=O)OC32c3ccc(O)cc3Oc3cc(O)ccc32)C(N)=O)CSCc2cccc(c2)CSC[C@@H](C(N)=O)NC(=O)[C@@H](CC2CCCCC2)NC(=O)[C@@H]2CCCN2Cc2cn1nn2 [Compound 7-L3] | > 5000
CC(C)C[C@@H]1C(=O)N2Cc3cc(sc3C2)C(=O)N[C@H](C(=O)NCCCCCC(=O)N[C@@H](CCCCNC(=O)c2ccc3c(c2)C(=O)OC32c3ccc(O)cc3Oc3cc(O)ccc32)C(N)=O)CSC/C=C/CSC[C@@H](C(N)=O)NC(=O)[C@@H](CC2CCCCC2)NC(=O)[C@@H]2CCCN2Cc2cn1nn2 [Compound 7-L4] | > 5000
CC(C)C[C@@H]1C(=O)N2Cc3cc(sc3C2)C(=O)N[C@H](C(=O)NCCCCCC(=O)N[C@@H](CCCCNC(=O)c2ccc3c(c2)C(=O)OC32c3ccc(O)cc3Oc3cc(O)ccc32)C(N)=O)CSC/C=C\CSC[C@@H](C(N)=O)NC(=O)[C@@H](CC2CCCCC2)NC(=O)[C@@H]2CCCN2Cc2cn1nn2 [Compound 7-L5] | > 5000
NC(=O)CSC[C@H](NC(=O)[C@@H](CC1CCCCC1)NC(=O)[C@@H]1CCCN1Cc1cn([C@H](CC2CCC2)C(=O)N2Cc3cc(C(=O)N[C@@H](CSCC(N)=O)C(=O)NCCCCCC(=O)N[C@@H](CCCCNC(=O)c4ccc5c(c4)C(=O)OC54c5ccc(O)cc5Oc5cc(O)ccc54)C(N)=O)sc3C2)nn1)C(N)=O [Compound 8-L0] | 118
